For two molecules, inhibition, delta Tm Staurosporine positive control and ΔTm results are on record in ChEMBL document CHEMBL5303766, “Data for DCP probe FHT-2344” (2022).

Assay [1] concerns the target Alpha-1B adrenergic receptor (Homo sapiens) (UniProt P35368). The following applies: Compound concentration 10.0 uM.
Assay [2] deals with T1, Dual specificity tyrosine-phosphorylation-regulated kinase 2 (Homo sapiens) (UniProt Q92630).
T1 sequence (whole entry): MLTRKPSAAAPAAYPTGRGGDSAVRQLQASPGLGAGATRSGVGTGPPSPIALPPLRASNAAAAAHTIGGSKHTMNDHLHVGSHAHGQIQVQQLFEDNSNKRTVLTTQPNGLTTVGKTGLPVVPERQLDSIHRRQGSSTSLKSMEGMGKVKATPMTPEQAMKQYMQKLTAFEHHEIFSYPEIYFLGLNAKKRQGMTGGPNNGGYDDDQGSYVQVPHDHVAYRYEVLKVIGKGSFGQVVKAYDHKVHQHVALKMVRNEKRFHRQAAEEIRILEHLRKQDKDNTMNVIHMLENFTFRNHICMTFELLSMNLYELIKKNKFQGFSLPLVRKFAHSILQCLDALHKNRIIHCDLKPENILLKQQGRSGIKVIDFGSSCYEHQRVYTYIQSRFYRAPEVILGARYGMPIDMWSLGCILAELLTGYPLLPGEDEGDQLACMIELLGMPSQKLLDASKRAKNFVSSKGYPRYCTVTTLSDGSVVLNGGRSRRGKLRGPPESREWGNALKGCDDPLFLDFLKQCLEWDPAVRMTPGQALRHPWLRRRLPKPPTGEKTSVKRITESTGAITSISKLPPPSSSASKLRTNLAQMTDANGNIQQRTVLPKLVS
The experiment in a line: DYRK2 SGC Tm panel (DSF). To be noted: for ΔTm: Compound concentration 10.0 uM.

Assay [3] addresses Dual specificity mitogen-activated protein kinase kinase 1 (Homo sapiens) (UniProt Q02750). The experiment in a line: MAP2K1 SGC Tm panel (DSF). To be noted: for ΔTm: Compound concentration 10.0 uM.
The target of assay [4] is Proto-oncogene tyrosine-protein kinase Src (Homo sapiens) (UniProt P12931). The assay is described as follows: SRC SGC Tm panel (DSF). To be noted: for ΔTm: Compound concentration 10.0 uM.
The target of assay [5] is T2, Myotonin-protein kinase (Homo sapiens) (UniProt Q09013).
T2 sequence (whole entry): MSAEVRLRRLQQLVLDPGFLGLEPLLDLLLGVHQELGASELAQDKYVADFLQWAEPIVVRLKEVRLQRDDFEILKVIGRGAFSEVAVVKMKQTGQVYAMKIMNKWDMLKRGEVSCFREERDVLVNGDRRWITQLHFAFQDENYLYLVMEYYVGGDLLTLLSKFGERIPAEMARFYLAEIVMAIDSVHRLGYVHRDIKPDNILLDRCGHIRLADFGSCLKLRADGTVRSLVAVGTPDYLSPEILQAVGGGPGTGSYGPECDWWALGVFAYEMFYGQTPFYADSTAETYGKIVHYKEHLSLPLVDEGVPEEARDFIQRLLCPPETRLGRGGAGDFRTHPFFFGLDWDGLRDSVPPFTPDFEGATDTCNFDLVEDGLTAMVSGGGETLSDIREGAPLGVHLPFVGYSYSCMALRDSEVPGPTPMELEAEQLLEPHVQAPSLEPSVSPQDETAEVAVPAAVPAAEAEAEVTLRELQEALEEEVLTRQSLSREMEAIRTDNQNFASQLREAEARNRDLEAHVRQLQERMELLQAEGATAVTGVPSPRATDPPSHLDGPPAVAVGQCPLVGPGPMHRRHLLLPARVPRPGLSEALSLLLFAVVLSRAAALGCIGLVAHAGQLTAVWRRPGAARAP
The experiment in a line: DMPK SGC Tm panel (DSF). To be noted: for ΔTm: Compound concentration 10.0 uM.

In assay [6] the target is Mitogen-activated protein kinase 9 (Homo sapiens) (UniProt P45984). The assay is described as follows: MAPK9 SGC Tm panel (DSF). The following applies: for ΔTm: Compound concentration 10.0 uM.
Assay [7] concerns the target Serine/threonine-protein kinase OSR1 (Homo sapiens) (UniProt O95747). The assay is described as follows: OXSR1 SGC Tm panel (DSF). To be noted: for ΔTm: Compound concentration 10.0 uM.
Assay [8] has as its target T3, Cytoplasmic tyrosine-protein kinase BMX (Homo sapiens) (UniProt P51813).
T3 sequence (whole entry): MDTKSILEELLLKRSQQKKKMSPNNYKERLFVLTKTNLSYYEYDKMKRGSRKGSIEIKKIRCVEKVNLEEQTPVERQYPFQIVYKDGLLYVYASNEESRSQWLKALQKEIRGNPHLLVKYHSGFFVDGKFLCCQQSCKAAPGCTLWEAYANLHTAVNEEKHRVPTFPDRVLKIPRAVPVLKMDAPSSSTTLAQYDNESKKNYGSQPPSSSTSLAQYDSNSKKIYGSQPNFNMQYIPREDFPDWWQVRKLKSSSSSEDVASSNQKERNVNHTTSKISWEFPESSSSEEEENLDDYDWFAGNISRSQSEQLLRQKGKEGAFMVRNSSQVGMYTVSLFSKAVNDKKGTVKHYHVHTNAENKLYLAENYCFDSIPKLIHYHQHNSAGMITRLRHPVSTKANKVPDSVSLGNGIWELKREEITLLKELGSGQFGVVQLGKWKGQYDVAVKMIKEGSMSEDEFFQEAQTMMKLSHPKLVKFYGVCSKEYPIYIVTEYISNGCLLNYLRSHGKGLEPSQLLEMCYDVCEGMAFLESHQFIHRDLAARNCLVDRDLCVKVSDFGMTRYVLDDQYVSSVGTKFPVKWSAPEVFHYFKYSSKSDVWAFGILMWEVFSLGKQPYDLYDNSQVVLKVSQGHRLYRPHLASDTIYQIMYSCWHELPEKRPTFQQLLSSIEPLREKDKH
The experiment in a line: BMX SGC Tm panel (DSF). The following applies: for ΔTm: Compound concentration 10.0 uM.

The target of assay [9] is Tyrosine-protein kinase ABL1 (Homo sapiens) (UniProt P00519). The experiment in a line: ABL1 SGC Tm panel (DSF). To be noted: for ΔTm: Compound concentration 10.0 uM.
Assay [10] deals with T4, Calcium/calmodulin-dependent protein kinase type IV (Homo sapiens) (UniProt Q16566).
T4 sequence (whole entry): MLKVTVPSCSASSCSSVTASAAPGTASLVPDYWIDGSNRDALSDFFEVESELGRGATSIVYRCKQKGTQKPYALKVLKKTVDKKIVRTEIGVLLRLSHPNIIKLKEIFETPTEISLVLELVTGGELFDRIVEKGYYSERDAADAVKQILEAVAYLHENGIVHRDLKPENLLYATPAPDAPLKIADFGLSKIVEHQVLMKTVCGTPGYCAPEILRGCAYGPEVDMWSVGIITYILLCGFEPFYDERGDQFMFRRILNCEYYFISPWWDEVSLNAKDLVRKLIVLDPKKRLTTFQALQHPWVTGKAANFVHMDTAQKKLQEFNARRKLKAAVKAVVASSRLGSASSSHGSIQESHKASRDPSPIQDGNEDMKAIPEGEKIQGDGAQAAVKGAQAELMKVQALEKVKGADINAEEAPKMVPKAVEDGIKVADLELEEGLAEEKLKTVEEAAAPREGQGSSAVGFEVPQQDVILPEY
The assay is described as follows: CAMK4 SGC Tm panel (DSF). The following applies: for ΔTm: Compound concentration 10.0 uM.

Assay [11] concerns the target Histamine H2 receptor (Homo sapiens) (UniProt P25021). To be noted: Compound concentration 10.0 uM.

Broadly, the inhibition is the drop in the measured response relative to a control, in per cent.

Dual specificity mitogen-activated protein kinase kinase 1 (Homo sapiens), sequence (Q02750 whole entry): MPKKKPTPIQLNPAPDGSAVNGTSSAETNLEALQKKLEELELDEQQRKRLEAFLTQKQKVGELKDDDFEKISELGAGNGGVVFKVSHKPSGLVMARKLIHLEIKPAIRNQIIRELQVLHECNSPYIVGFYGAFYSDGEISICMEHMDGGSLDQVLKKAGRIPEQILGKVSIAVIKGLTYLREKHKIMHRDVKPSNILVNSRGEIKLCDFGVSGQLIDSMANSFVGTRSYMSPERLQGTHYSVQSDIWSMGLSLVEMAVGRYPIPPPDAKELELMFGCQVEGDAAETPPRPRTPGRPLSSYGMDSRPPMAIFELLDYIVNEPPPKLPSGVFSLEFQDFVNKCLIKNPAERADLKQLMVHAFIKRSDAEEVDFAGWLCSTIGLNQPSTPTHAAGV
Mitogen-activated protein kinase 9 (Homo sapiens), sequence (P45984 whole entry, looked up): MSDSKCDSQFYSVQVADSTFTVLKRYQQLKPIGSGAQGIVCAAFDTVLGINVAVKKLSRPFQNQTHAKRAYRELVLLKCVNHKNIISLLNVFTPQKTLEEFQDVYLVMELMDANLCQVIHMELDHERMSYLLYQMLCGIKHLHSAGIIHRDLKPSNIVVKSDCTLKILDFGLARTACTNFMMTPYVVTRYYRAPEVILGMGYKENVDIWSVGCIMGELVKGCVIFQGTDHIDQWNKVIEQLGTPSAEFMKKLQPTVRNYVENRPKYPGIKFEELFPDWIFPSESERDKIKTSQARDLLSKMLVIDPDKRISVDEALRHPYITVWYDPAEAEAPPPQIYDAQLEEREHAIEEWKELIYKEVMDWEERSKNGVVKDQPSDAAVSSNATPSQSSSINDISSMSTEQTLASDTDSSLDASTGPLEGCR
Serine/threonine-protein kinase OSR1 (Homo sapiens), sequence (O95747 2-527 limits assumed): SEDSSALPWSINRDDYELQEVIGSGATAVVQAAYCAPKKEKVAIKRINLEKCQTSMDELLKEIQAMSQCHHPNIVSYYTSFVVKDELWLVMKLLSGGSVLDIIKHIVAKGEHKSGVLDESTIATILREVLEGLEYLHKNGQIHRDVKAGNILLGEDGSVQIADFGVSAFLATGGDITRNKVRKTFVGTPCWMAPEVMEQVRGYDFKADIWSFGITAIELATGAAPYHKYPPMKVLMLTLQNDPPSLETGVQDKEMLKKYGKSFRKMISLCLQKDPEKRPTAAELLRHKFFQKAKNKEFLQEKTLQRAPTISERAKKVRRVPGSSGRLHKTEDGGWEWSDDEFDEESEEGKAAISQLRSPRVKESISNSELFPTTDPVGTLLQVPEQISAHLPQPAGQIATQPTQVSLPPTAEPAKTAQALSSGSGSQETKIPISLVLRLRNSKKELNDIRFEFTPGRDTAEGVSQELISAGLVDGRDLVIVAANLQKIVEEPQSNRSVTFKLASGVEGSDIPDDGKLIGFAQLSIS
Tyrosine-protein kinase ABL1 (Homo sapiens), sequence (P00519 whole entry): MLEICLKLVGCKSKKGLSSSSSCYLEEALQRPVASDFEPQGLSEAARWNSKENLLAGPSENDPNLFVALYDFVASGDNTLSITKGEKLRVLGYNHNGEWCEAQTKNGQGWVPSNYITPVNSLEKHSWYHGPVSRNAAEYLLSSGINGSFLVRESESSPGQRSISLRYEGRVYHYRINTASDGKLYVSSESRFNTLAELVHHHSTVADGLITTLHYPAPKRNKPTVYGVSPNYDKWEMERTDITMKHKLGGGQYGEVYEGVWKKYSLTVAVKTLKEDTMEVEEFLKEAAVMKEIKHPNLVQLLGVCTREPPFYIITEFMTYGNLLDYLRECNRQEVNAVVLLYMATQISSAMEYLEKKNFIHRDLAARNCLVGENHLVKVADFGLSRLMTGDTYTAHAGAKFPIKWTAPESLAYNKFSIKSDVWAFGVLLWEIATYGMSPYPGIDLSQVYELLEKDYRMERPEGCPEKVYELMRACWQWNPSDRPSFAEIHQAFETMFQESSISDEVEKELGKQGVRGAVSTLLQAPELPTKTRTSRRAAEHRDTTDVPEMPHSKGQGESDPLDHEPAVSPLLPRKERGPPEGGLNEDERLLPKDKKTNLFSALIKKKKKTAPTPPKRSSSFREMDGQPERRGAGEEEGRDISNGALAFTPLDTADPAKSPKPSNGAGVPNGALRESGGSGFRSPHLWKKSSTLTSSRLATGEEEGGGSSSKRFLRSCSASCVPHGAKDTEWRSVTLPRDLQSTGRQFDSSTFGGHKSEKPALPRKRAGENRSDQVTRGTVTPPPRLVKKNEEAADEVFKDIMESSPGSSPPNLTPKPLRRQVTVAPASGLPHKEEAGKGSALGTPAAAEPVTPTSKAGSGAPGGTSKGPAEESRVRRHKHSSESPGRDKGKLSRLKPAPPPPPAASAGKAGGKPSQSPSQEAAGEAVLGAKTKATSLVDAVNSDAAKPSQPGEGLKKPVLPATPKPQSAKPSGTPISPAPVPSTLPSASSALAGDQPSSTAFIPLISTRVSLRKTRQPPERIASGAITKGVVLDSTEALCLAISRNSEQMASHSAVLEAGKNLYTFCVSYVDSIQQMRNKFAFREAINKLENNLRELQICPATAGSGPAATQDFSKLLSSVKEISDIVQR
Proto-oncogene tyrosine-protein kinase Src (Homo sapiens), sequence (P12931 2-536 limits assumed): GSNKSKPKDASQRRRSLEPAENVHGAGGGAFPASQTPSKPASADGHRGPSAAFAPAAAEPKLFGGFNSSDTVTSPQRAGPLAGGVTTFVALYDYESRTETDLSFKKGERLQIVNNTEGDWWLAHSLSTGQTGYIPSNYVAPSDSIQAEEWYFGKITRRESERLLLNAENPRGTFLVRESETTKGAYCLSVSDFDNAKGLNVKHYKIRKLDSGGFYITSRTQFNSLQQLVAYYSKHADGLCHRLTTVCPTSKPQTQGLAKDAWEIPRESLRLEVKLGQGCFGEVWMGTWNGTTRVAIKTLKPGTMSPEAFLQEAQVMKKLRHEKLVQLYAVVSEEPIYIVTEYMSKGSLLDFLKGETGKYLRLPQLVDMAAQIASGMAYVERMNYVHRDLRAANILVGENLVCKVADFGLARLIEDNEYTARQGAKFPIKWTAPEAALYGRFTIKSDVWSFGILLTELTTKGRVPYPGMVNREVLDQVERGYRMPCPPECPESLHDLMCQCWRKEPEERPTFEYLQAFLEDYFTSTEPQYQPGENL
Alpha-1B adrenergic receptor (Homo sapiens), sequence (P35368 whole entry): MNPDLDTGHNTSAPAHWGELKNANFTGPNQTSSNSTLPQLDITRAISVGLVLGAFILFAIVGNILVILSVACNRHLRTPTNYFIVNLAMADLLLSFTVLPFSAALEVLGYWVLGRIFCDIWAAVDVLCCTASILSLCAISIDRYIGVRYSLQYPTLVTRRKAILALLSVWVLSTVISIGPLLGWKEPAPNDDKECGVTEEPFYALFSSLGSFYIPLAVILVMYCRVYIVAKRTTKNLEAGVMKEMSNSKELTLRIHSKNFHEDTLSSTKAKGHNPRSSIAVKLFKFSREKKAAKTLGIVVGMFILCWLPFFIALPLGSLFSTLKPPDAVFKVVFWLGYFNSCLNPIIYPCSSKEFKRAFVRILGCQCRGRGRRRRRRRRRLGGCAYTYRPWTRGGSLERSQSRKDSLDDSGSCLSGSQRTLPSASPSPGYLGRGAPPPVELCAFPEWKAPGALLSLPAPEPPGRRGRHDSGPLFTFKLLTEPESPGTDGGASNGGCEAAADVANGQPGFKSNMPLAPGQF
Histamine H2 receptor (Homo sapiens), sequence (P25021 whole entry): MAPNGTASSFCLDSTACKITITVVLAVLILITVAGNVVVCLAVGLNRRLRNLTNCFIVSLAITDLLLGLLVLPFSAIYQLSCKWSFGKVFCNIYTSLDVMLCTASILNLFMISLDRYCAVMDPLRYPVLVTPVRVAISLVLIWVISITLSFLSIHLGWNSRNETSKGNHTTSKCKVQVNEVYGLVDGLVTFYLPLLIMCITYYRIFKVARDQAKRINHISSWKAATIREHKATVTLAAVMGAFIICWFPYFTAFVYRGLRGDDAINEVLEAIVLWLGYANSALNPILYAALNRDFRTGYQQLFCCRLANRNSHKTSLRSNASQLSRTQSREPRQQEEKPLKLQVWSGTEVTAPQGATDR

`COC[C@H](NC(=O)c1ccn(S(C)(=O)=O)c1)C(=O)Nc1nc(-c2cccc(-c3ccn(C)n3)c2)cs1`: the inhibition in assay [1] was -5.17%; in assay [11], 22.6%. Further, the delta Tm Staurosporine positive control was 6.46 in assay [2]; 5.5 in assay [3]; 5.5 in assay [4]; 9.28 in assay [5]; 3.96 in assay [6]; 5.06 in assay [7]. Further, the values for the delta Tm Staurosporine positive control in assay [8], in [9] and in assay [10] were 7.18, 8.26 and 8.78, respectively. For the same molecule, the ΔTm is 1.45 in assay [2]; -0.11 in [3]; -0.156 in [4]; 0.564 in assay [5]; 0.244 in [6]; -0.0355 in [7]. In addition, the ΔTm is 0.191 in assay [8], 0.39 in [9] and 0.803 in assay [10].
Take `C[C@H](NC(=O)c1cn(C2(C#N)CC2)cn1)C(=O)Nc1nc(-c2cccc(-c3ccn(C)n3)c2)cs1`: the inhibition was 8% in assay [1] and 4.24% in assay [11]. In addition, the delta Tm Staurosporine positive control turned out to be 6.46 in [2]; 5.5 in assay [3]; 5.5 in assay [4]; 9.28 in assay [5]; 3.96 in assay [6]; 5.06 in [7]. Also, the delta Tm Staurosporine positive control was 7.18 in [8], 8.26 in assay [9] and 8.78 in assay [10]. For the same molecule, the ΔTm in assay [2] is 1.82; in assay [3], -0.126; in [4], 0.346; in [5] it was -0.281; in assay [6], 0.39; in [7], 1.31. Besides, the ΔTm in assay [8] is 0.254; in assay [9] it was 0.15; in [10] it was 0.413.
